Where a name gives a salt, the structure may show the parent alone.
How the values were obtained:
HiBit-BRM fusion protein = biological target: T1, HiBit-BRM fusion protein (Homo sapiens, UniProt P51531); assay: HiBiT-BRM cell-based degradation assay (Nano-Glo HiBiT Lytic Detection, 24 h); conditions: HeLa cells expressing HiBiT-BRM; for DC50: read-out: BRM HiBit Degradation IC50; for BRM HiBit Degradation Maximum measured: top dose 30 μM
T1 construct: expressed in transfected cells
How it was run: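 Stable HiBiT-BRM HeLa line; 24 h compound exposure, top final 30 μM, 3-fold, 10 pts in duplicate. Lytic HiBiT/LgBiT luminescence readout. % degradation vs DMSO (0%) and 2 μM known BRM/BRG1 degrader (100%).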

[1] = biological target: T2, HiBit-BRG1 fusion protein (Homo sapiens, UniProt P51532); assay: HiBiT-BRG1 cell-based degradation assay (Nano-Glo HiBiT Lytic Detection, 24 h); conditions: HeLa cells expressing HiBit-BRG1 and LgBit; for DC50: read-out: BRG1 HiBit Degradation IC50; for Dmax: HeLa, top dose 30 μM, read-out: BRG1 HiBit Degradation Maximum measured
T2 construct: expressed in transfected cells
T2 sequence (P51532 whole entry, the tested form may be a part): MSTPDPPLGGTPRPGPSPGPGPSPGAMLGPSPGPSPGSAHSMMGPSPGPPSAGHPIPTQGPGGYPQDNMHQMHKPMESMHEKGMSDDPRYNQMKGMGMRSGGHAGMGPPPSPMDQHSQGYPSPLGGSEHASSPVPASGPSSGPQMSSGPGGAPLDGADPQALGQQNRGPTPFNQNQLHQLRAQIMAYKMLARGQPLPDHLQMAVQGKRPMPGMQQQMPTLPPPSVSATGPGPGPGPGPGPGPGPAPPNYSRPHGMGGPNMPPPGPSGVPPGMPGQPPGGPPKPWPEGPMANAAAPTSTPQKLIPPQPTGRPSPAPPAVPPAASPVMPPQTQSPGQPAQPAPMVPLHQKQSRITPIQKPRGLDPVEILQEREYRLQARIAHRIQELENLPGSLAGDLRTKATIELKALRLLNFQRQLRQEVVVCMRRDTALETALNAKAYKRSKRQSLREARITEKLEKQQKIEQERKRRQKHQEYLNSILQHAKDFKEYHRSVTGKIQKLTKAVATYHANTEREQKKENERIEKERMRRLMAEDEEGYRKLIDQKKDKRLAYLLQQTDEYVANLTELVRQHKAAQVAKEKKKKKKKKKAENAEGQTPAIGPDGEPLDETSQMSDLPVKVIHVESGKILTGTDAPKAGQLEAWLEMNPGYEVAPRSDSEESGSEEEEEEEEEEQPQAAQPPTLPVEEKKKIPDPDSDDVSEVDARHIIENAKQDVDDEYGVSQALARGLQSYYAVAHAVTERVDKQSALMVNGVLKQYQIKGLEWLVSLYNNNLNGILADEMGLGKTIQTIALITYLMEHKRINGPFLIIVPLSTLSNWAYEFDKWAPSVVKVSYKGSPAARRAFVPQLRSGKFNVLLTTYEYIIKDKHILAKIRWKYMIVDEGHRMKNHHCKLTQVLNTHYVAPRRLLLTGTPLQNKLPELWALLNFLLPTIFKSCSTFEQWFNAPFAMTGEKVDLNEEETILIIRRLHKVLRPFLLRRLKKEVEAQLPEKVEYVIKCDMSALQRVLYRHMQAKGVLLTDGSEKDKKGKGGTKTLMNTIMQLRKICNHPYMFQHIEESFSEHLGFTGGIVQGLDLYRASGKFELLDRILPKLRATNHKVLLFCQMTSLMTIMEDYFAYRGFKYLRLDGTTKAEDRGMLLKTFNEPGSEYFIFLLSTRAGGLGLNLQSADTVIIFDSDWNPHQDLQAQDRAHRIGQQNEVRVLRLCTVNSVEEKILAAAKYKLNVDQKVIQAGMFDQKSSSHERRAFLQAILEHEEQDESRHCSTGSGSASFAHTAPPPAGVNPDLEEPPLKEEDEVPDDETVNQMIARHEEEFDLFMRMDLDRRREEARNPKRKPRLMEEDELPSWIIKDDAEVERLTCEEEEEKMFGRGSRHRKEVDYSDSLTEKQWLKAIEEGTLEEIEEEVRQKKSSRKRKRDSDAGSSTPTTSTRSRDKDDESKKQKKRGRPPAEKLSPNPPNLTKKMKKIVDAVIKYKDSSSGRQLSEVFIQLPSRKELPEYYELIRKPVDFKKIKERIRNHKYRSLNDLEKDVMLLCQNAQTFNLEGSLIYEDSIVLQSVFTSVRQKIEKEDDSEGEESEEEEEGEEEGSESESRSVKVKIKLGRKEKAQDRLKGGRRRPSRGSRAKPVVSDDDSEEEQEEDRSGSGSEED
How it was run: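 Degradation is scaled from DMSO-treated cells (0%) to cells given 2 μM of a known BRM/BRG1 degrader (100%). HeLa cells stably carrying HiBiT-BRG1 plus LgBiT (5000/well) were lysed with Nano-Glo HiBiT detection reagent, shaken 10 min at RT, and luminescence read.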

T1 sequence (P51531 whole entry, the tested form may be a part): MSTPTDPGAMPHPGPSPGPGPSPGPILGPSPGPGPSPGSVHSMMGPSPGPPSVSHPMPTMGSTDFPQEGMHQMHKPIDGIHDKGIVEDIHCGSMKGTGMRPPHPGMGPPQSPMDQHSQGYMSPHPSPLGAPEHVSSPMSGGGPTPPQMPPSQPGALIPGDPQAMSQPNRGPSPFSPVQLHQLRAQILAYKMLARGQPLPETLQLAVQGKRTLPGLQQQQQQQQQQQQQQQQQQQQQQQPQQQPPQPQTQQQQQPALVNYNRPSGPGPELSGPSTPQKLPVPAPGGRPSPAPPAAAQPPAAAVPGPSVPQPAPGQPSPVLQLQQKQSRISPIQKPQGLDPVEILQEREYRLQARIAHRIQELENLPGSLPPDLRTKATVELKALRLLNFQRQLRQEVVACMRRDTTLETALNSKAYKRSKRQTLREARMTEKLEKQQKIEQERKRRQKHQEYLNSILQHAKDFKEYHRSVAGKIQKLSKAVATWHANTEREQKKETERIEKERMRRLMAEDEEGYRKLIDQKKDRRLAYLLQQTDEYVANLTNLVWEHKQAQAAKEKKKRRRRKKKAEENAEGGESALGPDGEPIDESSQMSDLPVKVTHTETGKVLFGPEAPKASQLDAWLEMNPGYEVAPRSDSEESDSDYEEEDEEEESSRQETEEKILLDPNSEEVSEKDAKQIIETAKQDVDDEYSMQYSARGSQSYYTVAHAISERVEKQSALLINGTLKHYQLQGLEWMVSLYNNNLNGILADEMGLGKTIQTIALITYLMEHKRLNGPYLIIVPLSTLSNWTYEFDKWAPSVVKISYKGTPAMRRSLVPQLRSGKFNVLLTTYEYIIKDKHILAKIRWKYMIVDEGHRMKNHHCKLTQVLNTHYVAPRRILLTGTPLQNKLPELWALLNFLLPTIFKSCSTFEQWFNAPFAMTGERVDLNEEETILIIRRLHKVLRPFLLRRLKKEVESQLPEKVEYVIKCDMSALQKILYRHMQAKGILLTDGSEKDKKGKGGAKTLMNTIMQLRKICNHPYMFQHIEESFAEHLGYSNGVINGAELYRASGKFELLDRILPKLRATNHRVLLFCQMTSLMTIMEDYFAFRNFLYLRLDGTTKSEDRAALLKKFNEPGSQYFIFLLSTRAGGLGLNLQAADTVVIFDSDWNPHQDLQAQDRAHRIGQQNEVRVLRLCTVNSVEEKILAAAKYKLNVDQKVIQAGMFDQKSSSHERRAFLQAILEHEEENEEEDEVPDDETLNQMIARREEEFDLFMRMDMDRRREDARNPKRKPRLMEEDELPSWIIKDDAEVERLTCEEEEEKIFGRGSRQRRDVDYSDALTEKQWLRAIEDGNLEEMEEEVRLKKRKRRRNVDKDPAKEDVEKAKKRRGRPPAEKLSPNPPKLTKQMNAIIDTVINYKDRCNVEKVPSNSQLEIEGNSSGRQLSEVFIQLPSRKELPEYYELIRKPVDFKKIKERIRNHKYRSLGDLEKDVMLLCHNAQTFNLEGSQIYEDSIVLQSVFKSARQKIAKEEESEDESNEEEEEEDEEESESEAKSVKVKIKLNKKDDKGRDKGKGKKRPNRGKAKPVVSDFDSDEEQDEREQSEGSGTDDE

Structure (SMILES)	DC50 (HiBit-BRM fusion protein) [nM]	BRM HiBit Degradation Maximum measured (HiBit-BRM fusion protein)	DC50 [1] [nM]	Dmax [1] [%]
CS(=O)(=O)n1ccc(C(=O)NCC(=O)Nc2nc(C3CCCN(C(=O)CCCCCCCOc4cccc5c4C(=O)N(C4CCC(=O)NC4=O)C5=O)C3)cs2)c1 (stereo not shown) [Compound 148, N-{4-[1-(8-{[2-(2,6-dioxopiperidin-3-yl)-1,3-dioxo-2,3-dihydro-1H-isoindol-4-yl]oxy}octanoyl)piperidin-3-yl]-1,3-thiazol-2-yl}-2-[(1-methanesulfonyl-1H-pyrrol-3-yl)formamido]acetamide]	> 10000	C (‘C’ = Maximum degradation <50%)	> 10000	< 50
CS(=O)(=O)n1ccc(C(=O)NCC(=O)Nc2nc(-c3cccc(-c4ccnc(C5(C(=O)NCC6CCN(CCOc7ccc8c(c7)C(=O)N(C7CCC(=O)NC7=O)C8=O)CC6)CC5)c4)c3)cs2)c1 (stereo not shown) [Compound 149, N-[[1-(2-[[2-(2,6-dioxopiperidin-3-yl)-1,3-dioxoisoindol-5-yl]oxy]ethyl)piperidin-4-yl]methyl]-1-[4-[3-(2-[2-[(1-methanesulfonylpyrrol-3-yl)formamido]acetamido]-1,3-thiazol-4-yl)phenyl]pyridin-2-yl]cyclopropane-1-carboxamide]	100 to 1000	A (‘A’ = Maximum degradation >75%)	100 to 1000	> 75
CS(=O)(=O)n1ccc(C(=O)NCC(=O)Nc2nc(-c3cccc(-c4ccnc(C5(C(=O)N6CCN(CCOc7ccc8c(c7)C(=O)N(C7CCC(=O)NC7=O)C8=O)CC6)CC5)c4)c3)cs2)c1 (stereo not shown) [Compound 150, N-(2-((4-(3-(2-(1-(4-(2-((2-(2,6-dioxopiperidin-3-yl)-1,3-dioxoisoindolin-5-yl)oxy)ethyl)piperazine-1-carbonyl)cyclopropyl)pyridin-4-yl)phenyl)thiazol-2-yl)amino)-2-oxoethyl)-1-(methylsulfonyl)-1H-pyrrole-3-carboxamide]	100 to 1000	B (‘B’ = Maximum degradation ≥50% and ≤75%)	100 to 1000	> 75
CS(=O)(=O)n1ccc(C(=O)NCC(=O)Nc2nc(-c3cccc(-c4ccnc(C5(C(=O)N6CCC7(CC6)CC(Oc6ccc8c(c6)C(=O)N(C6CCC(=O)NC6=O)C8=O)C7)CC5)c4)c3)cs2)c1 (stereo not shown) [Compound 151, N-[4-(3-[2-[1-(2-[[2-(2,6-dioxopiperidin-3-yl)-1,3-dioxoisoindol-5-yl]oxy]-7-azaspiro[3.5]nonane-7-carbonyl)cyclopropyl]pyridin-4-yl]phenyl)-1,3-thiazol-2-yl]-2-[(1-methanesulfonylpyrrol-3-yl)formamido]acetamide]	> 10000	C (‘C’ = Maximum degradation <50%)	< 100	50 to 75
CS(=O)(=O)n1ccc(C(=O)NCC(=O)Nc2nc(-c3cccc(-c4ccnc(C5(C(=O)NCCCC#Cc6cccc7c6C(=O)N(C6CCC(=O)NC6=O)C7=O)CC5)c4)c3)cs2)c1 (stereo not shown) [Compound 152, N-[5-[2-(2,6-dioxopiperidin-3-yl)-1,3-dioxoisoindol-4-yl]pent-4-yn-1-yl]-1-[4-[3-(2-[2-[(1-methanesulfonylpyrrol-3-yl)formamido]acetamido]-1,3-thiazol-4-yl)phenyl]pyridin-2-yl]cyclopropane-1-carboxamide]	> 10000	C (‘C’ = Maximum degradation <50%)	> 10000	< 50
Cc1ncsc1-c1ccc(CNC(=O)[C@@H]2C[C@@H](O)CN2C(=O)[C@@H](NC(=O)CCCCCCC(=O)N(C)Cc2cc(-c3cccc(-c4csc(NC(=O)CNC(=O)c5ccn(S(C)(=O)=O)c5)n4)c3)ccn2)C(C)(C)C)cc1 [Compound 153, N-[(2S)-1-[(2S,4R)-4-hydroxy-2-([[4-(4-methyl-1,3-thiazol-5-yl)phenyl]methyl]carbamoyl)pyrrolidin-1-yl]-3,3-dimethyl-1-oxobutan-2-yl]-N′-([4-[3-(2-[2-[(1-methanesulfonylpyrrol-3-yl)formamido]acetamido]-1,3-thiazol-4-yl)phenyl]pyridin-2-yl]methyl)-N′-methyloctanediamide]	100 to 1000	B (‘B’ = Maximum degradation ≥50% and ≤75%)	100 to 1000	> 75
Cc1ncsc1-c1ccc(CNC(=O)[C@@H]2C[C@@H](O)CN2C(=O)[C@@H](NC(=O)CCN2CC(C(=O)NCc3cccc(-c4cccc(-c5csc(NC(=O)CNC(=O)c6ccn(S(C)(=O)=O)c6)n5)c4)c3)C2)C(C)(C)C)cc1 [Compound 154, (2S,4R)-4-hydroxy-1-[(2S)-2-[3-[3-([[3-(2-[2-[(1-methanesulfonylpyrrol-3-yl)formamido]acetamido]-1,3-thiazol-4-yl)-[1,1-biphenyl]-3-yl]methyl]carbamoyl)azetidin-1-yl]propanamido]-3,3-dimethylbutanoyl]-N-[[4-(4-methyl-1,3-thiazol-5-yl)phenyl]methyl]pyrrolidine-2-carboxamide formate]	> 10000	C (‘C’ = Maximum degradation <50%)	> 10000	
Cc1ncsc1-c1ccc(CNC(=O)[C@@H]2C[C@@H](O)CN2C(=O)[C@@H](NC(=O)CCN2CCC(C(=O)NCc3cccc(-c4cccc(-c5csc(NC(=O)CNC(=O)c6ccn(S(C)(=O)=O)c6)n5)c4)c3)CC2)C(C)(C)C)cc1 [Compound 155, 1-(2-[[(2S)-1-[(2S,4R)-4-hydroxy-2-([[4-(4-methyl-1,3-thiazol-5-yl)phenyl]methyl]carbamoyl)pyrrolidin-1-yl]-3,3-dimethyl-1-oxobutan-2-yl]carbamoyl]ethyl)-N-[[3-(2-[2-[(1-methanesulfonylpyrrol-3-yl)formamido]acetamido]-1,3-thiazol-4-yl)-[1,1-biphenyl]-3-yl]methyl]piperidine-4-carboxamide formate]	> 10000	C (‘C’ = Maximum degradation <50%)	> 10000	
CS(=O)(=O)n1ccc(C(=O)NCC(=O)Nc2nc(-c3cccc(-c4ccnc(C5(C(=O)N6CC(CN7CCN(c8ccc9c(c8)C(=O)N(C8CCC(=O)NC8=O)C9=O)CC7)C6)CC5)c4)c3)cs2)c1 (stereo not shown) [Compound 156, N-[4-[3-(2-[1-[3-([4-[2-(2,6-dioxopiperidin-3-yl)-1,3-dioxoisoindol-5-yl]piperazin-1-yl]methyl)azetidine-1-carbonyl]cyclopropyl]pyridin-4-yl)phenyl]-1,3-thiazol-2-yl]-2-[(1-methanesulfonylpyrrol-3-yl)formamido]acetamide]	100 to 1000	A (‘A’ = Maximum degradation >75%)	100 to 1000	> 75
Cc1ncsc1-c1ccc(CNC(=O)[C@@H]2C[C@@H](O)CN2C(=O)[C@@H](NC(=O)CN2CC(C(=O)NCc3cccc(-c4cccc(-c5csc(NC(=O)CNC(=O)c6ccn(S(C)(=O)=O)c6)n5)c4)c3)C2)C(C)(C)C)cc1 [Compound 157, (2S,4R)-4-hydroxy-1-[(2S)-2-[2-[3-([[3-(2-[2-[(1-methan-esulfonyl-pyrrol-3-yl)formamido]acetamido]-1,3-thiazol-4-yl)-[1,1-biphenyl]-3-yl]methyl]carbamoyl)azetidin-1-yl]acetamido]-3,3-dimethylbutanoyl]-N-[[4-(4-methyl-1,3-thiazol-5-yl)phenyl]methyl]pyrr-oledine-2-carboxamide]	> 10000	C (‘C’ = Maximum degradation <50%)	> 10000	< 50
Cc1ncsc1-c1ccc(CNC(=O)[C@@H]2C[C@@H](O)CN2C(=O)[C@@H](NC(=O)NCc2cccc(-c3cccc(-c4csc(NC(=O)CNC(=O)c5ccn(S(C)(=O)=O)c5)n4)c3)c2)C(C)(C)C)cc1 [Compound 158, (2S,4R)-4-hydroxy-1-[(2S)-2-[([[3-(2-[2-[(1-methanesulfonylpyrrol-3-yl)formamido]acetamido]-1,3-thiazol-4-yl)-[1,1-biphenyl]-3-yl]methyl]carbamoyl)amino]-3,3-dimethylbutanoyl]-N-[[4-(4-methyl-1,3-thiazol-5-yl)phenyl]methyl]pyrrolidine-2-carboxamide]	> 10000	C (‘C’ = Maximum degradation <50%)	> 10000	< 50
Cc1ncsc1-c1ccc(CNC(=O)[C@@H]2C[C@@H](O)CN2C(=O)[C@@H](NC(=O)C2CC2C(=O)NCc2cccc(-c3cccc(-c4csc(NC(=O)CNC(=O)c5ccn(S(C)(=O)=O)c5)n4)c3)c2)C(C)(C)C)cc1 (stereo partly drawn) [Compound 159, N1-[(2S)-1-[(2S,4R)-4-hydroxy-2-([[4-(4-methyl-1,3-thiazol-5-yl)phenyl]methyl]carbamoyl)pyrrolidin-1-yl]-3,3-dimethyl-1-oxobutan-2-yl]-N2-[[3-(2-[2-[(1-methanesulfonylpyrrol-3-yl)formamido]acetamido]-1,3-thiazol-4-yl)-[1,1-biphenyl]-3-yl]methyl]cyclopropane-1,2-dicarboxamide]	> 10000	C (‘C’ = Maximum degradation <50%)	> 10000	< 50
